Data published in patent publication US9346761B2, “Arginine methyltransferase inhibitors and uses thereof” (Epizyme, Inc., priority 2013, dated 2016).

Tests used:
[1] = tested on: mono-methyl arginine in RKO cells; assay: RKO methylation assay, In Cell Western for mono-methyl arginine and DNA content; format: cell-based; conditions: Homo sapiens; In Cell Western, RKO cells, 72 hours, percent activation of mono-methyl arginine signal; read-out: EC30
[2] = biological target: T1, Full-length human PRMT6 (Homo sapiens, UniProt Q96LA8); assay: PRMT6 biochemical assay (3H-SAM Flashplate, peptide substrate)
T1 construct: Flag-PRMT6-His was eluted with 200 ug/ml FLAG peptide in the same buffer; made in house; host or cells: HEK 293F cells (BacMam virus, pFastBacMam)
Method in brief: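 Flag-PRMT6-His from baculovirus-infected cells, preincubated with compound 30 min at room temperature, then SAM/3H-SAM and biotinylated H4 36-50 peptide added; 20 mM Bicine pH 7.6, TCEP, BSG, Tween 20. Quenched with cold SAM, captured on streptavidin Flashplates; % inhibition from SAH/DMSO controls, 3- or 4-parameter IC50 fit.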

T1 sequence (Q96LA8 with tags, fused parts or gaps): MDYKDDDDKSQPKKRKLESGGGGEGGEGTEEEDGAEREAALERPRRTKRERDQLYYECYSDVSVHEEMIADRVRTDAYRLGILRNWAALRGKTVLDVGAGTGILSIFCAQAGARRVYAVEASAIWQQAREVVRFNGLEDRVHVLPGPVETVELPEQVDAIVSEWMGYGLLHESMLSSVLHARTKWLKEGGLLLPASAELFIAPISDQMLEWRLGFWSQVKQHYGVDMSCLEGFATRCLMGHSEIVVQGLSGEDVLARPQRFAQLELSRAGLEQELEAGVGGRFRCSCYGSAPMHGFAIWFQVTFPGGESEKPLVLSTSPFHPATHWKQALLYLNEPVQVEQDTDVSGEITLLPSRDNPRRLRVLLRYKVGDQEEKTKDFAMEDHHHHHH

Compound | EC30 [1] [nM] | IC50 [2] [nM]
CN(CCN)Cc1n[nH]cc1-c1ccc(C#N)cc1 [Compound 100] | < 3000 | < 100
Cc1ccc(-c2n[nH]cc2CN(C)CCN)cc1Cl [Compound 126] | < 3000 | < 100
COc1cccc(-c2n[nH]cc2CN(C)CCN)c1 [Compound 130] | 3010 to 12000 | < 100
COc1ccc(-c2n[nH]cc2CN(C)CCN)cc1F [Compound 134] | < 3000 | < 100
Cc1cccc(-c2n[nH]cc2CN(C)CCN)c1 [Compound 131] | < 3000 | < 100
COc1ccc(-c2n[nH]cc2CN(C)CCN)c(F)c1 [Compound 107] | > 12000 | < 100
CN(CCN)Cc1c[nH]nc1-c1ccc(F)c(Cl)c1 [Compound 124] | < 3000 | < 100
Cc1[nH]nc(-c2ccc(F)cc2)c1CN(C)CCN [Compound 169] | > 12000 | < 100
CN(CCN)Cc1c[nH]nc1-c1ccc(OCC(F)(F)F)cc1 [Compound 96] | < 3000 | < 100
CN(CCN)Cc1c[nH]nc1-c1ccc(Cl)cc1 [Compound 95] | < 3000 | < 100
COCCn1cc(CN(C)CCN)c(-c2ccc(F)cc2)n1 [Compound 5] | > 12000 | 101 to 1000
CN(CCN)Cc1c[nH]nc1-c1ccc2c(c1)NC(=O)CO2 [Compound 173] | > 12000 | < 100
COc1ccc(-c2n[nH]cc2CN(C)CCN)c(Cl)c1 [Compound 146] | 3010 to 12000 | < 100
CC(=O)c1cccc(-c2n[nH]cc2CN(C)CCN)c1 [Compound 112] | > 12000 | < 100
CN(CCN)Cc1cn(CC2CCOCC2)nc1-c1ccc(F)cc1 [Compound 128] | > 12000 | 1010 to 3000
CN(CCN)Cc1cnn(CC(O)CO)c1-c1ccc(F)cc1 (centres unmarked) [Compound 113] | > 12000 | 101 to 1000
COc1ccc(-c2n[nH]cc2CN(C)CCN)c(C(F)(F)F)c1 [Compound 154] | > 12000 | 101 to 1000

Compound | EC30 [1] [nM] | IC50 [2] [nM]
CN(CCN)Cc1c[nH]nc1-c1cc(C#N)ccc1Cl [Compound 147] | > 12000 | < 100
COc1ccc(F)cc1-c1n[nH]cc1CN(C)CCN [Compound 160] | > 12000 | 101 to 1000
CN(CCN)Cc1c[nH]nc1-c1cc(Cl)ccc1F [Compound 156] | 3010 to 12000 | < 100
CN(CCN)Cc1c[nH]nc1-c1ccc(C2CC2)cc1 [Compound 116] | < 3000 | < 100
COc1ccc(-c2n[nH]cc2CN(C)CCN)c(C)c1 [Compound 155] | 3010 to 12000 | < 100
CCN(CC)C(=O)c1ccc(-c2n[nH]cc2CN(C)CCN)cc1 [Compound 143] | > 12000 | 101 to 1000
CN(CCN)Cc1n[nH]cc1-c1ccc(C2CC2)cc1 [Compound 104] | 3010 to 12000 | < 100
CCn1ncc(CN(C)CCNC)c1-c1ccc(F)cc1 [Compound 7] | 3010 to 12000 | < 100
CN(CCN)Cc1c[nH]nc1-c1ccc(C(F)(F)F)cc1F [Compound 148] | 3010 to 12000 | < 100
CN(CCN)Cc1c[nH]nc1-c1cc(F)cc(F)c1 [Compound 111] | > 12000 | < 100
Cc1ccccc1-c1n[nH]cc1CN(C)CCN [Compound 161] | > 12000 | < 100
CCN(C)C(=O)c1ccc(-c2n[nH]cc2CN(C)CCN)cc1 [Compound 163] | > 12000 | < 100
CN(CCN)Cc1c[nH]nc1-c1cc(F)ccc1Cl [Compound 106] | > 12000 | < 100
Cc1ccc(F)cc1-c1n[nH]cc1CN(C)CCN [Compound 159] | 3010 to 12000 | < 100
COCCOc1ccc(-c2n[nH]cc2CN(C)CCN)cc1 [Compound 167] | < 3000 | < 100
CN(CCN1CCCC1)Cc1c[nH]nc1-c1ccc(C#N)cc1 [Compound 139] | > 12000 | –
